According to US11820766B2, “Monoacylglycerol lipase modulators” (Janssen Pharmaceutica NV, priority 2018, dated 2023):

target: T1, human MGL from HeLa cells (Homo sapiens, UniProt Q99685); experiment: In vitro MGL activity assay: [glycerol-1,3-3H]-oleyl glycerol cleavage by MGL from HeLa cells; type: biochemical; settings: 300 nM [Glycerol-1,3-3H]-oleyl glycerol, one hour
T1 construct: combining endogenously expressed MGL from HeLa cells with test compounds; endogenous in cells; host or cells: HeLa cells / cell homogenates
T1 sequence (Q99685 1-303): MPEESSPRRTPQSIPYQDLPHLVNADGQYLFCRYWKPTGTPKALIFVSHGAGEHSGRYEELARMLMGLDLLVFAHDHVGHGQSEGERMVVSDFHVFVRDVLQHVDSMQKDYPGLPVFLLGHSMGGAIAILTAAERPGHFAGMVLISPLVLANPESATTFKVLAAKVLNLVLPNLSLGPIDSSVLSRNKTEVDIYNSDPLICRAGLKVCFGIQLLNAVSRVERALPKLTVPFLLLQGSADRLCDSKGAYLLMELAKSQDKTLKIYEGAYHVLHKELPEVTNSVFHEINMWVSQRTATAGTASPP
From the text: MGL is the predominant hydrolase in HeLa cells/cell homogenates.

Structure (SMILES) | IC50 [nM]
Cc1nc(C(=O)N2CCc3c(nn(C)c3-c3cc(F)c(F)c(F)c3)[C@@H]2C)c2cnn(C)c2n1 [Example 617, (S)-(1,6-Dimethyl-1H-pyrazolo[3,4-d]pyrimidin-4-yl)(2,7-dimethyl-3-(3,4,5-trifluorophenyl)-2,4,5,7-tetrahydro-6H-pyrazolo[3,4-c]pyridin-6-yl)methanone] | 32.4
C[C@H]1c2nn(C)c(-c3cccc(C(F)(F)F)c3)c2CCN1C(=O)c1ccc2ncccc2c1 [Example 468, [(7S)-2,7-Dimethyl-3-[3-(trifluoromethyl)phenyl]-5,7-dihydro-4H-pyrazolo[3,4-c]pyridin-6-yl]-(6-quinolyl)methanone] | 50.7
C[C@H]1c2nn(C)c(-c3cc(F)c(F)c(F)c3)c2CCN1C(=O)c1cccc2c1CCNC2 [Example 574, [(7S)-2,7-Dimethyl-3-(3,4,5-trifluorophenyl)-5,7-dihydro-4H-pyrazolo[3,4-c]pyridin-6-yl]-(1,2,3,4-tetrahydroisoquinolin-5-yl)methanone] | 330
Cc1nc2ccc(F)cn2c1C(=O)N1CCc2c(nn(C)c2-c2cc(F)c(F)c(F)c2)[C@@H]1C [Example 407, [(7S)-2,7-Dimethyl-3-(3,4,5-trifluorophenyl)-5,7-dihydro-4H-pyrazolo[3,4-c]pyridin-6-yl]-(6-fluoro-2-methyl-imidazo[1,2-a]pyridin-3-yl)methanone] | 21.3
COc1nccc(C(=O)N2CCc3c(nn(C)c3-c3cccc(C(C)(F)F)c3)[C@@H]2C)c1C [Example 594, [(7S)-3-[3-(1,1-Difluoroethyl)phenyl]-2,7-dimethyl-5,7-dihydro-4H-pyrazolo[3,4-c]pyridin-6-yl]-(2-methoxy-3-methyl-4-pyridyl)methanone] | 335
C[C@H]1c2nn(C)c(-c3ccc4occc4c3)c2CCN1C(=O)c1ccc2ncccc2c1 [Example 533, [(7S)-3-(Benzofuran-5-yl)-2,7-dimethyl-5,7-dihydro-4H-pyrazolo[3,4-c]pyridin-6-yl]-(6-quinolyl)methanone] | 17.4
Cc1nc2c(C)ncc(C)n2c1C(=O)N1CCc2c(nn(C)c2-c2cc(F)c(F)c(F)c2)[C@@H]1C [Example 459, [(7S)-2,7-Dimethyl-3-(3,4,5-trifluorophenyl)-5,7-dihydro-4H-pyrazolo[3,4-c]pyridin-6-yl]-(2,5,8-trimethylimidazo[1,2-a]pyrazin-3-yl)methanone] | 312
C[C@H]1c2nn(C)c(-c3cc(F)c(F)c(F)c3)c2CCN1C(=O)c1cnn2c1OCCC2 [Example 554, 6,7-Dihydro-5H-pyrazolo[5,1-b][1,3]oxazin-3-yl-[(7S)-2,7-dimethyl-3-(3,4,5-trifluorophenyl)-5,7-dihydro-4H-pyrazolo[3,4-c]pyridin-6-yl]methanone] | 57.6
Cc1ccc2c(C(=O)N3CCc4c(nn(C)c4-c4cc(F)c(F)c(F)c4)[C@@H]3C)c[nH]c2c1 [Example 360, [(7S)-2,7-Dimethyl-3-(3,4,5-trifluorophenyl)-5,7-dihydro-4H-pyrazolo[3,4-c]pyridin-6-yl]-(6-methyl-1H-indol-3-yl)methanone] | 46.8
Cc1nn(C)c2nccc(C(=O)N3CCc4c(nn(C)c4-c4cc(F)c(F)c(F)c4)[C@@H]3C)c12 [Example 425, (1,3-Dimethylpyrazolo[3,4-b]pyridin-4-yl)-[(7S)-2,7-dimethyl-3-(3,4,5-trifluorophenyl)-5,7-dihydro-4H-pyrazolo[3,4-c]pyridin-6-yl]methanone] | 68.1
Cc1cn(C)c2ncnc(C(=O)N3CCc4c(nn(C)c4-c4cc(F)c(F)c(F)c4)[C@@H]3C)c12 [Example 467, (5,7-Dimethylpyrrolo[2,3-d]pyrimidin-4-yl)-[(7S)-2,7-dimethyl-3-(3,4,5-trifluorophenyl)-5,7-dihydro-4H-pyrazolo[3,4-c]pyridin-6-yl] methanone] | 36.1

same assay, conditions: 300 nM [Glycerol-1,3-3H]-oleyl glycerol, one hour incubation

Structure (SMILES) | IC50 [nM]
C[C@H]1c2nn(C)c(-c3cc(F)c(F)c(F)c3)c2CCN1C(=O)c1cccc2cn[nH]c12 [Example 208, (S)-(2,7-Dimethyl-3-(3,4,5-trifluorophenyl)-2,4,5,7-tetrahydro-6H-pyrazolo[3,4-c]pyridin-6-yl)(1H-indazol-7-yl)methanone] | 34.2
Cn1nc2c(c1-c1ccccc1)CCN(C(=O)c1cncc3ccccc13)C2 [Example 87, Isoquinolin-4-yl(2-methyl-3-phenyl-2,4,5,7-tetrahydro-6H-pyrazolo[3,4-c]pyridin-6-yl)methanone] | 39.8
Cn1nc2c(c1-c1ccccc1)CCN(C(=O)c1nccc3ccccc13)C2 [Example 88, Isoquinolin-1-yl(2-methyl-3-phenyl-2,4,5,7-tetrahydro-6H-pyrazolo[3,4-c]pyridin-6-yl)methanone] | 47.3
C[C@H]1c2nn(C)c(-c3cc(F)cc(F)c3)c2CCN1C(=O)c1ccc2ncccc2c1 (single isomer, unassigned) [Example 159] | 7.3
Cn1nc2c(c1-c1ccccc1)CCN(C(=O)c1cccc3occc13)C2 [Example 34, Benzofuran-4-yl(2-methyl-3-phenyl-2,4,5,7-tetrahydro-6H-pyrazolo[3,4-c]pyridin-6-yl)methanone] | 300
CC(C)c1c(C(=O)N2CCc3c(nn(C)c3-c3cc(F)c(F)c(F)c3)[C@@H]2C)cnn1C [Example 328, [(7S)-2,7-Dimethyl-3-(3,4,5-trifluorophenyl)-5,7-dihydro-4H-pyrazolo[3,4-c]pyridin-6-yl]-(5-isopropyl-1-methyl-pyrazol-4-yl)methanone] | 1090
CC1c2nn(C(F)F)c(-c3cc(F)cc(F)c3)c2CCN1C(=O)c1ccc2ncccc2c1 (centres unmarked) [Example 155, (2-(Difluoromethyl)-3-(3,5-difluorophenyl)-7-methyl-2,4,5,7-tetrahydro-6H-pyrazolo[3,4-c]pyridin-6-yl)(quinolin-6-yl)methanone] | 4.63
Cn1nc2c(c1-c1ccccc1)CCN(C(=O)c1nsc3ccccc13)C2 [Example 63, Benzo[d]isothiazol-3-yl(2-methyl-3-phenyl-2,4,5,7-tetrahydro-6H-pyrazolo[3,4-c]pyridin-6-yl)methanone] | 49
Cn1nc2c(c1-c1ccccc1)CCN(C(=O)c1c[nH]c3ccncc13)C2 [Example 83, (2-Methyl-3-phenyl-2,4,5,7-tetrahydro-6H-pyrazolo[3,4-c]pyridin-6-yl)(1H-pyrrolo[3,2-c]pyridin-3-yl)methanone] | 1500
C[C@H]1c2nn(C)c(-c3cc(F)c(F)c(F)c3)c2CCN1C(=O)c1cnc2ccccn12 [Example 213, (S)-(2,7-Dimethyl-3-(3,4,5-trifluorophenyl)-2,4,5,7-tetrahydro-6H-pyrazolo[3,4-c]pyridin-6-yl)(imidazo[1,2-a]pyridin-3-yl)methanone] | 25.6
C[C@H]1c2nn(C)c(-c3cccc(Cl)c3)c2CCN1C(=O)c1cc(CO)ccn1 [Example 119, (S)-(3-(3-Chlorophenyl)-2,7-dimethyl-2,4,5,7-tetrahydro-6H-pyrazolo[3,4-c]pyridin-6-yl)(4-(hydroxymethyl)pyridin-2-yl)methanone] | 398
Cn1nc2c(c1-c1ccccc1)CCN(C(=O)c1ccc3cncn3c1)C2 [Example 77, Imidazo[1,5-a]pyridin-6-yl(2-methyl-3-phenyl-2,4,5,7-tetrahydro-6H-pyrazolo[3,4-c]pyridin-6-yl)methanone] | 5160
